For two compounds, Papp A→B, Papp B→A and IC50 results are on record in US11014898B1, “Benzothiazepine compounds and their use as bile acid modulators” (Albireo AB, priority 2020, dated 2021).

A short description of data set [1]: Bidirectional permeability assay (Caco-2 cells). In kind it is in vitro ADME. The conditions noted are these: human, Caco-2, pH 7.4, 10 μM in FaSSIF buffer, 120 minutes at 37° C.; for Papp A→B at 120 min, 10 μM: absorptive direction (A2B); for Papp B→A at 120 min, 10 μM: secretory direction (B2A). How it is done:
Caco-2 cells (Evotec) were seeded at a density of 70,000 cells/well in Millicell® 24-well cell culture insert plates and maintained in an incubator (37° C., 5% CO2, 95% RH) for 21 days with media change on alternate days.
Stock solutions (10 mM) of the test compounds, atenolol (low permeability marker), propranolol (high permeability marker) and digoxin (substrate for P-gp transport pathway) were prepared in dimethylsulfoxide (DMSO). An intermediate stock solution (1 mM) was prepared by diluting 10 μL of 10 mM master stock solution with 90 μL of neat DMSO. A working stock solution (10 μM) was prepared by diluting 50 μL of 1 mM with 4950 μL of FaSSIF buffer. Post addition of compounds to the FaSSIF, samples were subjected to sonication for 2 hours, and centrifuged at 4000 RPM for 30 minutes at 37° C. The 4 mL of resultant supernatant was directly used in the assay. The final DMSO concentration in the transport experiments was 1%.
On the day of assay, Caco-2 monolayers were washed twice with transport buffer (HBSS, pH 7.4) and pre-incubated for 30 min (37° C., 5% CO2, 95% RH) in an incubator. The electrical resistance of the monolayers was measured with a Millicell®-ERS system. Monolayers with trans-epithelial electrical resistance (TEER) values greater than 350 ohm·cm^2 were selected for the assay.
The assay was conducted in absorptive direction (A2B) and secretory (B2A) directions. Transport experiments were initiated by addition of transport assay buffer (FaSSIF buffer prepared in HBSS) consisting of compounds to the donor compartment (apical chamber A-B; basolateral chamber B-A) in duplicate (n=2) wells. Drug free HBSS buffer (pH 7.4) containing 1% bovine serum albumin (BSA) was introduced to the receiver (A-B-basolateral; B-A-Apical) compartments. The volumes of apical and basolateral compartments were 0.4 and 0.8 mL, respectively. After adding dosing solution, plates were incubated in an incubator for 120 minutes at 37° C. After 120 minutes, donor and receiver samples were collected and matrix matched (1:1, 30 μL study sample+30 μL blank buffer) with the opposite buffer. Dosing samples matrix matched (1:1, 30 μL study sample+30 μL blank buffer) with the opposite buffer. Samples were processed by adding acetonitrile containing internal standard (60 μL study sample+200 μL acetonitrile containing internal standard-Tolbutamide, 500 ng/mL). Samples were vortexed and centrifuged at 4000 rpm for 10 minutes. The obtained supernatant (100 μL) was diluted with 100 μL of water and transferred to fresh 96 well plates. The concentration of compounds in the samples was analyzed by liquid chromatography tandem mass spectrometry (LC-MS/MS) method using discovery grade bio-analytical method, as applicable.
The mean apparent permeability (Papp×10^−6 cm/sec) of the test compounds, atenolol, propranolol and digoxin were calculated as follows:
where dq/dt=rate of transport (rate of transport of compound in the receiver compartment), C0=initial concentration in the donor compartment, A=surface area of the effective filter membrane.
(Passage across Caco-2 layers is used to estimate intestinal permeability.)

A further data set deals with T1, Human LBAT (Homo sapiens, UniProt Q14973).
T1 construct: expressed in transfected cells; cells kept under Geneticin selection
T1 sequence (Q14973 1-349): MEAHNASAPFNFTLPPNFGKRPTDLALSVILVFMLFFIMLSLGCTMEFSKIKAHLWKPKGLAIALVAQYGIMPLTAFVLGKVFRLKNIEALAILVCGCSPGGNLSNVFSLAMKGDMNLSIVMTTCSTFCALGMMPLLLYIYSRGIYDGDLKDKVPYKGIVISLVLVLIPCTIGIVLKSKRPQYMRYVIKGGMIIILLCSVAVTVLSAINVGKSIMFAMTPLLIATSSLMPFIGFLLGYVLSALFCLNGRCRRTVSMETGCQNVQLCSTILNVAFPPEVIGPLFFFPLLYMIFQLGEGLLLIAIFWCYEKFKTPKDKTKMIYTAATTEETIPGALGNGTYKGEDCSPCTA
As to the kind of experiment: LBAT (h) assay: 3H-taurocholic acid uptake in human LBAT-overexpressing cells. In kind it is cell-based. The settings on record: 0.3 μM 3H-taurocholic acid and 7.5 μM cold taurocholic acid, 20 minutes, read-out: hLBAT IC50. How it is done:
20,000 cells (Human or Mouse LBAT-overexpressing cells) were seeded in 96-wells plate (Corning CLS3809) in 100 μL MEM-alpha medium (Gibco 12571-063) supplemented with 10% FBS (Gibco 10438026) containing Geneticin (Gibco 10131-027) (1 mg/mL) and incubated at 37° C. in 5% CO2 for 24 hours. After incubation, media was decanted from the wells and cells were washed two times with 300 μL of basal MEM-alpha medium (FBS-free). After decanting basal MEM-alpha medium each time, plates were tapped against paper towel to ensure maximum removal of residual media. For human LBAT, incubation mix was prepared by adding test inhibitor dilutions (3-fold serial dilution in DMSO (Sigma D2650), 10 points) in MEM-alpha (without FBS) containing 0.3 μM 3H-taurocholic acid (ARC ART-1368) and 7.5 μM cold taurocholic acid (Sigma T4009) (maintaining 0.2% final DMSO concentration). For mouse LBAT, incubation mix was prepared by adding test inhibitor dilutions (3-fold serial dilution in DMSO, 10 points) in MEM-alpha (without FBS) containing 0.3 μM 3H-taurocholic acid and 25 μM cold taurocholic acid maintaining 0.2% final DMSO concentration).
50 μL of incubation mix containing test inhibitors was then added to the wells (in duplicate) and the plates were incubated for 20 minutes in a CO2 incubator at 37° C. After incubation, the reaction was stopped by keeping the plates on ice water mix for 2-3 minutes and then the incubation mix was aspirated completely from the wells. The wells were washed two times with 250 μL of chilled unlabelled 1 mM taurocholic acid dissolved in HEPES (Gibco 15630080)-buffered (10 mM) HBSS (Gibco 14175079) (pH 7.4). The plates were tapped against a paper towel after every wash to ensure maximum removal of blocking buffer.
100 μL of MicroScint-20 (PerkinElmer 6013621) was added to the wells and kept overnight at room temperature before reading the plates in TopCount NXT™ Microplate Scintillation and Luminescence Counter from PerkinElmer under 3H Test protocol (set at 120 seconds reading time per well, with normal plate orientation).
All test compounds were provided in powder form at room temperature. 10 mM DMSO stocks of the test compounds were prepared, aliquoted and stored at −20° C. From the 10 mM DMSO stock of the compounds, a 3-fold serial dilution in DMSO was prepared to get a total of 10 dilutions of the test compounds. 0.5 μL of this dilution in DMSO was added to 250 μL of FBS-free basal media containing 3H-taurocholic acid and cold taurocholic acid to prepare the incubation mixture.

Molecules are shown by their SMILES.

In data set [1], `CCCCC1(CCCC)CN(c2ccc(Br)cc2)c2cc(SC)c(OCC(=O)O)cc2S(=O)(=O)C1` [Example 3, 2-((5-(4-bromophenyl)-3,3-dibutyl-7-(methylthio)-1,1-dioxido-2,3,4,5-tetrahydro-1,5-benzothiazepin-8-yl)oxy)acetic Acid] came in with a Papp A→B at 120 min, 10 μM of 41 nm/s and a Papp B→A at 120 min, 10 μM of 19 nm/s. For the same compound, the concentration for half-maximal inhibition (IC50) on Human LBAT stood at 2.82 µM.

As for `CCCCC1(CCCC)CN(c2ccc(O)cc2)c2cc(SC)c(OCC(=O)O)cc2S(=O)(=O)C1` [Example 4, 2-((3,3-dibutyl-5-(4-hydroxyphenyl)-7-(methylthio)-1,1-dioxido-2,3,4,5-tetrahydro-1,5-benzothiazepin-8-yl)oxy)acetic Acid], in data set [1], the Papp A→B at 120 min, 10 μM is 33 nm/s and the Papp B→A at 120 min, 10 μM was 89 nm/s. Also, the IC50 at Human LBAT is 1.99 µM.

For orientation: Papp A→B means how fast a substance crosses the layer from the apical side. Low readings indicate slow passage, high ones fast passage. What is called Papp B→A is how fast a substance crosses the layer from the basolateral side. Broadly, the IC50 is the concentration that inhibits the measured activity by half.
